In ChEMBL document CHEMBL3638614, “Diaza-spiro[5.5]undecanes” (2013):

What was measured:
[1] = molecular target: T1, Orexin/Hypocretin receptor type 1 (Homo sapiens, UniProt O43613); test: (§1) FLIPR Assay : FLIPR assay using orexin receptor.
T1 sequence (O43613 whole entry): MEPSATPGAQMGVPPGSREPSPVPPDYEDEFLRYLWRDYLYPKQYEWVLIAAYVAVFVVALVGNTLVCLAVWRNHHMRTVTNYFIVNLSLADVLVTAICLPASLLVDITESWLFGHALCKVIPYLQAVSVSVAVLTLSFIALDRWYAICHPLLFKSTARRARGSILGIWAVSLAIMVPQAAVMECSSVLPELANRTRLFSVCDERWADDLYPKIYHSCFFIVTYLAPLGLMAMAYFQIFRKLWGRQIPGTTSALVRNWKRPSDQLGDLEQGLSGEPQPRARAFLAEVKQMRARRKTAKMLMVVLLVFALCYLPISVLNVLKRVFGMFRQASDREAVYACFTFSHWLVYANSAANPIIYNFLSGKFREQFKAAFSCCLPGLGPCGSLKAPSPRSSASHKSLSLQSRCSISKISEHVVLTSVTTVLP

Orexin receptor type 2 [2] = molecular target: T2, Orexin receptor type 2 (Homo sapiens, UniProt O43614); test: as §1
T2 sequence (O43614 whole entry): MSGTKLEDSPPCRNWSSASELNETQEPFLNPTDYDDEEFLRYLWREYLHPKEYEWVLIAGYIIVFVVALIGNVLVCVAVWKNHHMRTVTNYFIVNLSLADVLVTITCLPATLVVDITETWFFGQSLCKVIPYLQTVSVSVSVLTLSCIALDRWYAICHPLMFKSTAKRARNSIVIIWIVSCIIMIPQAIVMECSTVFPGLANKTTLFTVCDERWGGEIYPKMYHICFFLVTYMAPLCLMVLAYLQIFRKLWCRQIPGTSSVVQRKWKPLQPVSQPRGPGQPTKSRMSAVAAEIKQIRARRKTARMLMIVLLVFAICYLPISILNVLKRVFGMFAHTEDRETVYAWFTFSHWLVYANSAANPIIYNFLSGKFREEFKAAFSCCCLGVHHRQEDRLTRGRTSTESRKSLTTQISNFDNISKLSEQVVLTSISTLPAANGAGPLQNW

[3] = molecular target: T1, Orexin/Hypocretin receptor type 1; test: (§2) Radioligand Binding Assay : Radioligand binding assay using orexin receptor.
Orexin receptor type 2 [4] = molecular target: T2, Orexin receptor type 2; test: as §2

O=C1N(Cc2cc(Cl)cc3c2OCOC3)CCCC12CCN(c1cnc3ccccc3n1)CC2
Ki [1]: 1.54 µM
Ki (Orexin receptor type 2 [2]): 0.739 µM

Cn1c(N2CCC3(CCCN(Cc4ccccc4)C3=O)CC2)nc2ccccc21
Kd [3]: > 10 µM
Kd (Orexin receptor type 2 [4]): > 10 µM

O=C1N(Cc2cccc3ccccc23)CCCC12CCN(c1nc3ccccc3[nH]1)CC2
Kd [3]: > 10 µM
Kd (Orexin receptor type 2 [4]): 0.755 µM
Ki [1]: 2.46 µM
Ki (Orexin receptor type 2 [2]): 0.126 µM
